One compound from patent US20210022305A1, “A HUMULUS PLANT VARIANT AND EXTRACTS THEREOF” (BOMI LLC, priority 2018, published 2021) can be followed below.

This experiment relates to CB2. The experiment is described as follows: CBD bioactivity test (monoclonal antibody test based on CB2 affinity). Type of experiment: binding. Conditions: CBD samples isolated from ImmunAG.

Several values for one entry are separate records, joined by “and”; a condition that tells them apart may be missing. Equal values may be shown once.

Description: All chemicals and solutions were obtained from Sigma-Aldrich (St. Louis, Mo.). All cell cultures were obtained from Creative Bioarray, Shirley, N.Y. CBD bioactivity was measured using practices described in Cushing et al., “Measuring the Bioactivity of Phytocannabinoid Cannabidiol from Cannabis Sources, and a Novel Non-Cannabis Source,” Journal of Medical Phyto.
CBD Samples and Bioactivity Testing. […] Following isolation, bioactivity was measured using procedures outlined in Cushing et al., “Measuring the Bioactivity of Phytocannabinoid Cannabidiol from Cannabis Sources, and a Novel Non-Cannabis Source,” Journal of Medical Phyto.
The bioactivity testing procedure used in this experiment, as described in Cushing et al., “Measuring the Bioactivity of Phytocannabinoid Cannabidiol from Cannabis Sources, and a Novel Non-Cannabis Source,” Journal of Medical Phyto. Research 10 (2018), which is hereby incorporated by reference in its entirety, consisted of a monoclonal antibody test whose validity was based on the CB2 affinity of CBD samples.

Turning to `C=C(C)C1CCC(C)=CC1c1c(O)cc(CCCCC)cc1O` (stereo not drawn) [CBD, 2-(6-isopropenyl-3-methyl-2-cyclohexen-l-yl)-5-pentyl-1,3-benzenediol], the Bioactivity is 0.80 and 0.90 and 0.95.
